Laboratory results published in patent US6914045B2, “Glycopeptide antibiotics” (Wyeth Holdings Corporation, priority 2001, dated 2005).
In brackets after ≈: the same amount, converted by molar mass.

Key:
Assay in all cases: in vitro antibacterial evaluation, MIC by broth dilution
Assay type in all cases: cell-based
Streptococcus sp. = settings: broth dilution, 18 hours at 35° C.
Method in brief: (§1)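 Broth dilution per NCCLS M7-A2 in Mueller-Hinton II medium, inoculum 5×10^5 CFU/mL, antibiotic range 64-0.06 μg/mL. MIC taken as lowest concentration inhibiting growth; Gram-positive panel includes recent clinical isolates resistant to methicillin, penicillin and/or vancomycin.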

Enterococcus sp. = settings: broth dilution, 18 hours at 35° C.
Method in brief: as §1

Staphylococcus sp. = settings: broth dilution, 18 hours at 35° C.; for MIC Staphylococcus aureus (ATCC 29213): strain ATCC 29213; for MIC Staphylococcus aureus (GC 1131): strain GC 1131; for MIC Staphylococcus aureus (GC 3051): strain GC 3051; for MIC Staphylococcus aureus (GC 3053): strain GC 3053; for MIC Staphylococcus aureus (GC 4541): strain GC 4541; for MIC Staphylococcus aureus (GC 4542): strain GC 4542; for MIC Staphylococcus aureus (GC 4544): strain GC 4544; for MIC Staphylococcus aureus (GC 4545): strain GC 4545
Method in brief: as §1

Escherichia coli = settings: 18 hours at 35° C.
Method in brief: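 Broth dilution MIC per NCCLS M7-A2 in Mueller-Hinton II medium, inoculum 5×10^5 CFU/mL, antibiotic range 64-0.06 μg/mL. MIC taken as lowest concentration inhibiting growth.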

[1] = Enterococcus faecalis (ATCC 29212)
[2] = Enterococcus faecalis (GC 4552)
[3] = Enterococcus faecalis (GC 4553)
[4] = Enterococcus faecalis (GC 4554)
[5] = Enterococcus faecalis (GC 6189)

Tri-N-[(phenylmethoxy)carbonyl]-cyclo[glycl-β-methylphenylalanyltyrosyl-3-(2-iminoimidazolidin-4-yl)seryl-3-(3-hexopyranosyl-2-iminoimidazolidin-4-yl)serylseryl] [Example 89]
MIC Streptococcus agalactiae (GC 4564) (Streptococcus sp.): 32 µg/mL | MIC Streptococcus pneumoniae (ATCC 6301) (Streptococcus sp.): 16 µg/mL | MIC Streptococcus pneumoniae (GC 1894) (Streptococcus sp.): 4 µg/mL | MIC Streptococcus pneumoniae (GC 4565) (Streptococcus sp.): 8 µg/mL | MIC Streptococcus pyogenes (GC 4563) (Streptococcus sp.): 32 µg/mL | MIC Streptococcus pneumoniae (ATCC 6301) (Streptococcus sp.; strain ATCC 6301): 16 µg/mL | MIC Streptococcus pneumoniae (GC 1894) (Streptococcus sp.; strain GC 1894): 4 µg/mL | MIC Streptococcus pyogenes (GC 4563) (Streptococcus sp.; strain GC 4563): 32 µg/mL | MIC Streptococcus agalactiae (GC 4564) (Streptococcus sp.; strain GC 4564): 32 µg/mL | MIC Streptococcus pneumoniae (GC 4565) (Streptococcus sp.; strain GC 4565): 8 µg/mL | MIC Enterococcus avium (GC 4558) (Enterococcus sp.; Enterococcus avium (GC 4558)): 32 µg/mL | MIC Enterococcus faecalis (ATCC 29212) (Enterococcus sp.; [1]): 64 µg/mL | MIC Enterococcus faecalis (GC 4552) (Enterococcus sp.; [2]): 64 µg/mL | MIC Enterococcus faecalis (GC 4553) (Enterococcus sp.; [3]): 64 µg/mL | MIC Enterococcus faecalis (GC 4554) (Enterococcus sp.; [4]): 64 µg/mL | MIC Enterococcus faecalis (GC 6189) (Enterococcus sp.; [5]): 64 µg/mL | MIC Enterococcus faecium (GC 2243) (Enterococcus sp.; Enterococcus faecium (GC 2243)): 64 µg/mL | MIC Enterococcus faecium (GC 4556) (Enterococcus sp.; Enterococcus faecium (GC 4556)): 64 µg/mL | MIC Enterococcus faecium (GC 4557) (Enterococcus sp.; Enterococcus faecium (GC 4557)): 32 µg/mL | MIC Enterococcus avium (GC 4558) (Enterococcus sp.): 32 µg/mL | MIC Enterococcus faecalis (ATCC 29212) (Enterococcus sp.): 64 µg/mL | MIC Enterococcus faecalis (GC 2242) (Enterococcus sp.): 64 µg/mL | MIC Enterococcus faecalis (GC 2691) (Enterococcus sp.): 64 µg/mL | MIC Enterococcus faecalis (GC 3059) (Enterococcus sp.): 64 µg/mL | MIC Enterococcus faecalis (GC 4552) (Enterococcus sp.): 64 µg/mL | MIC Enterococcus faecalis (GC 4553) (Enterococcus sp.): 64 µg/mL | MIC Enterococcus faecalis (GC 4554) (Enterococcus sp.): 64 µg/mL | MIC Enterococcus faecalis (GC 6189) (Enterococcus sp.): 64 µg/mL | MIC Enterococcus faecium (GC 2243) (Enterococcus sp.): 64 µg/mL | MIC Enterococcus faecium (GC 4556) (Enterococcus sp.): 64 µg/mL | MIC Enterococcus faecium (GC 4557) (Enterococcus sp.): 32 µg/mL | MIC Enterococcus faecalis (GC 2242) (Enterococcus sp.; strain GC 2242): 64 µg/mL | MIC Enterococcus faecalis (GC 2691) (Enterococcus sp.; strain GC 2691): 64 µg/mL | MIC Enterococcus faecalis (GC 3059) (Enterococcus sp.; strain GC 3059): 64 µg/mL | MIC Coagulase Negative Staphylococcus (GC 4547) (Staphylococcus sp.): 32 µg/mL | MIC Coagulase Negative Staphylococcus (GC 4548) (Staphylococcus sp.): 64 µg/mL | MIC Coagulase Negative Staphylococcus (GC 4549) (Staphylococcus sp.): 64 µg/mL | MIC Coagulase Negative Staphylococcus (GC 4551) (Staphylococcus sp.): 64 µg/mL | MIC Coagulase Negative Staphylococcus (GC 6257) (Staphylococcus sp.): 32 µg/mL | MIC Staphylococcus aureus-SMITH (GC 4543) (Staphylococcus sp.): 64 µg/mL | MIC Staphylococcus haemolyticus (GC 4546) (Staphylococcus sp.): 32 µg/mL | MIC Staphylococcus aureus (ATCC 29213) (Staphylococcus sp.): 64 µg/mL | MIC Staphylococcus aureus (GC 1131) (Staphylococcus sp.): 64 µg/mL | MIC Staphylococcus aureus (GC 3051) (Staphylococcus sp.): 64 µg/mL | MIC Staphylococcus aureus (GC 3053) (Staphylococcus sp.): 64 µg/mL | MIC Staphylococcus aureus (GC 4541) (Staphylococcus sp.): 64 µg/mL | MIC Staphylococcus aureus (GC 4542) (Staphylococcus sp.): 64 µg/mL | MIC Staphylococcus aureus-SMITH (GC 4543) (Staphylococcus sp.; strain GC 4543): 64 µg/mL | MIC Staphylococcus aureus (GC 4544) (Staphylococcus sp.): 64 µg/mL | MIC Staphylococcus aureus (GC 4545) (Staphylococcus sp.): 64 µg/mL | MIC Staphylococcus haemolyticus (GC 4546) (Staphylococcus sp.; strain GC 4546): 32 µg/mL | MIC Coagulase Negative Staphylococcus (GC 4547) (Staphylococcus sp.; strain GC 4547): 32 µg/mL | MIC Coagulase Negative Staphylococcus (GC 4548) (Staphylococcus sp.; strain GC 4548): 64 µg/mL | MIC Coagulase Negative Staphylococcus (GC 4549) (Staphylococcus sp.; strain GC 4549): 64 µg/mL | MIC Coagulase Negative Staphylococcus (GC 4551) (Staphylococcus sp.; strain GC 4551): 64 µg/mL | MIC Coagulase Negative Staphylococcus (GC 6257) (Staphylococcus sp.; strain GC 6257): 32 µg/mL | MIC Escherichia coli (ATCC 25922) (Escherichia coli): >64 µg/mL | MIC Escherichia coli (GC 4559) (Escherichia coli): >64 µg/mL | MIC Escherichia coli (GC 4560) (Escherichia coli): 32 µg/mL

CC(c1ccccc1)C1NC(=O)CNC(=O)C(CO)NC(=O)C(CC2CN(Cc3ccccc3)C(=N)N2C2OC(CO)C(O)C(O)C2O)NC(=O)C(CC2CNC(=N)N2)NC(=O)C(Cc2ccc(OC3OC(CO)C(OC4OC5COC6(OC5C(O)C4O)C4CC5CC(C4)CC6C5)C(O)C3O)cc2)NC1=O (stereo not drawn) [Example 80, Cyclo[3-(2-iminoimidazolidin-4-yl)alanyl-3-(1-benzyl-3-hexopyranosyl-2-iminoimidazolidin-4-yl)alanylserylglycyl-β-methylphenylalanyl-O-[4-O-[4,6-O-(2-adamantylidene)hexopyranosyl]hexopyranosyl]tyrosyl]]
MIC Streptococcus agalactiae (GC 4564) (Streptococcus sp.): 8 µg/mL (≈ 5.38 µM) | MIC Streptococcus pneumoniae (ATCC 6301) (Streptococcus sp.): 8 µg/mL (≈ 5.38 µM) | MIC Streptococcus pneumoniae (GC 1894) (Streptococcus sp.): 4 µg/mL (≈ 2.69 µM) | MIC Streptococcus pneumoniae (GC 4565) (Streptococcus sp.): 16 µg/mL (≈ 10.8 µM) | MIC Streptococcus pyogenes (GC 4563) (Streptococcus sp.): 8 µg/mL (≈ 5.38 µM) | MIC Streptococcus pneumoniae (ATCC 6301) (Streptococcus sp.; strain ATCC 6301): 8 µg/mL (≈ 5.38 µM) | MIC Streptococcus pneumoniae (GC 1894) (Streptococcus sp.; strain GC 1894): 4 µg/mL (≈ 2.69 µM) | MIC Streptococcus pyogenes (GC 4563) (Streptococcus sp.; strain GC 4563): 8 µg/mL (≈ 5.38 µM) | MIC Streptococcus agalactiae (GC 4564) (Streptococcus sp.; strain GC 4564): 8 µg/mL (≈ 5.38 µM) | MIC Streptococcus pneumoniae (GC 4565) (Streptococcus sp.; strain GC 4565): 16 µg/mL (≈ 10.8 µM) | MIC Enterococcus avium (GC 4558) (Enterococcus sp.; Enterococcus avium (GC 4558)): 32 µg/mL (≈ 21.5 µM) | MIC Enterococcus faecalis (ATCC 29212) (Enterococcus sp.; [1]): 64 µg/mL (≈ 43.1 µM) | MIC Enterococcus faecalis (GC 4552) (Enterococcus sp.; [2]): 64 µg/mL (≈ 43.1 µM) | MIC Enterococcus faecalis (GC 4553) (Enterococcus sp.; [3]): 32 µg/mL (≈ 21.5 µM) | MIC Enterococcus faecalis (GC 4554) (Enterococcus sp.; [4]): 64 µg/mL (≈ 43.1 µM) | MIC Enterococcus faecalis (GC 6189) (Enterococcus sp.; [5]): 64 µg/mL (≈ 43.1 µM) | MIC Enterococcus faecium (GC 2243) (Enterococcus sp.; Enterococcus faecium (GC 2243)): 32 µg/mL (≈ 21.5 µM) | MIC Enterococcus faecium (GC 4556) (Enterococcus sp.; Enterococcus faecium (GC 4556)): 64 µg/mL (≈ 43.1 µM) | MIC Enterococcus faecium (GC 4557) (Enterococcus sp.; Enterococcus faecium (GC 4557)): 16 µg/mL (≈ 10.8 µM) | MIC Enterococcus avium (GC 4558) (Enterococcus sp.): 32 µg/mL (≈ 21.5 µM) | MIC Enterococcus faecalis (ATCC 29212) (Enterococcus sp.): 64 µg/mL (≈ 43.1 µM) | MIC Enterococcus faecalis (GC 2242) (Enterococcus sp.): 32 µg/mL (≈ 21.5 µM) | MIC Enterococcus faecalis (GC 2691) (Enterococcus sp.): 64 µg/mL (≈ 43.1 µM) | MIC Enterococcus faecalis (GC 3059) (Enterococcus sp.): 64 µg/mL (≈ 43.1 µM) | MIC Enterococcus faecalis (GC 4552) (Enterococcus sp.): 64 µg/mL (≈ 43.1 µM) | MIC Enterococcus faecalis (GC 4553) (Enterococcus sp.): 32 µg/mL (≈ 21.5 µM) | MIC Enterococcus faecalis (GC 4554) (Enterococcus sp.): 64 µg/mL (≈ 43.1 µM) | MIC Enterococcus faecalis (GC 6189) (Enterococcus sp.): 64 µg/mL (≈ 43.1 µM) | MIC Enterococcus faecium (GC 2243) (Enterococcus sp.): 32 µg/mL (≈ 21.5 µM) | MIC Enterococcus faecium (GC 4556) (Enterococcus sp.): 64 µg/mL (≈ 43.1 µM) | MIC Enterococcus faecium (GC 4557) (Enterococcus sp.): 16 µg/mL (≈ 10.8 µM) | MIC Enterococcus faecalis (GC 2242) (Enterococcus sp.; strain GC 2242): 32 µg/mL (≈ 21.5 µM) | MIC Enterococcus faecalis (GC 2691) (Enterococcus sp.; strain GC 2691): 64 µg/mL (≈ 43.1 µM) | MIC Enterococcus faecalis (GC 3059) (Enterococcus sp.; strain GC 3059): 64 µg/mL (≈ 43.1 µM) | MIC Staphylococcus aureus (ATCC 29213) (Staphylococcus sp.): 32 µg/mL (≈ 21.5 µM) | MIC Staphylococcus aureus (GC 1131) (Staphylococcus sp.): 32 µg/mL (≈ 21.5 µM) | MIC Staphylococcus aureus (GC 3051) (Staphylococcus sp.): 32 µg/mL (≈ 21.5 µM) | MIC Staphylococcus aureus (GC 3053) (Staphylococcus sp.): 64 µg/mL (≈ 43.1 µM) | MIC Staphylococcus aureus (GC 4541) (Staphylococcus sp.): 32 µg/mL (≈ 21.5 µM) | MIC Staphylococcus aureus (GC 4542) (Staphylococcus sp.): 32 µg/mL (≈ 21.5 µM) | MIC Staphylococcus aureus-SMITH (GC 4543) (Staphylococcus sp.; strain GC 4543): 32 µg/mL (≈ 21.5 µM) | MIC Staphylococcus aureus (GC 4544) (Staphylococcus sp.): 32 µg/mL (≈ 21.5 µM) | MIC Staphylococcus aureus (GC 4545) (Staphylococcus sp.): 32 µg/mL (≈ 21.5 µM) | MIC Staphylococcus haemolyticus (GC 4546) (Staphylococcus sp.; strain GC 4546): 32 µg/mL (≈ 21.5 µM) | MIC Coagulase Negative Staphylococcus (GC 4547) (Staphylococcus sp.; strain GC 4547): 32 µg/mL (≈ 21.5 µM) | MIC Coagulase Negative Staphylococcus (GC 4548) (Staphylococcus sp.; strain GC 4548): 32 µg/mL (≈ 21.5 µM) | MIC Coagulase Negative Staphylococcus (GC 4549) (Staphylococcus sp.; strain GC 4549): 32 µg/mL (≈ 21.5 µM) | MIC Coagulase Negative Staphylococcus (GC 4551) (Staphylococcus sp.; strain GC 4551): 32 µg/mL (≈ 21.5 µM) | MIC Coagulase Negative Staphylococcus (GC 6257) (Staphylococcus sp.; strain GC 6257): 8 µg/mL (≈ 5.38 µM) | MIC Escherichia coli (ATCC 25922) (Escherichia coli): >64 µg/mL | MIC Escherichia coli (GC 4559) (Escherichia coli): >64 µg/mL | MIC Escherichia coli (GC 4560) (Escherichia coli): 8 µg/mL (≈ 5.38 µM)
